The record followed here is PubChem BioAssay (NCI).

Test in all cases: DTP human tumour cell line panel, 48 h
Test [1] concerns 786-0 renal.
Test [2] has as its system A498 renal.
Test [3] has as its system COLO 205 colon.
Test [4] relates to HCT-116 colon.
For test [5], the system named is KM12 colon.
The subject of test [6] is OVCAR-4 ovarian.
Test [7] deals with RPMI-8226 leukemia.
Test [8] has as its system RXF 393 renal.
The subject of test [9] is SK-MEL-28 melanoma.
Test [10] concerns SNB-19 CNS.

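1) Cells in 96-well plates. 2) Compound, 48 h, 5 concentrations. 3) Linear interpolation between surrounding doses. 4) Unreached endpoint = highest concentration. Here, GI50 denotes the concentration required for 50% inhibition of growth. At the TGI there is no net growth.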

As a reminder, the TGI is the concentration giving total growth inhibition. Lower therefore signals greater sensitivity of the cells. Regarding `C/C(=N\NC(=S)Nc1ccc(C(=O)O)cc1)c1ccccn1`, the TGI in test [1] worked out at 43.3 µM; in [2], 50.7 µM; in test [3] it was 34.3 µM; in test [4], 51.4 µM; in [5], 68.9 µM; in [6], 29.5 µM. Also, the TGI in [7] is 76.6 µM; in [8], 74.4 µM; in test [9] it was above 100 µM.

Broadly, the GI50 is the concentration at which growth is held to half of that of the control. Turning to `CCCCCCCCCCCCCCCCCCNC(=O)[C@H]1CSC(c2ccc(OC)c(F)c2)N1` (stereo partly specified), the GI50 was 7.18 µM in test [1]; above 39.1 µM in test [3]; 1.68 µM in [4]; 2.34 µM in test [5]; 14 µM in test [6]; 0.435 µM in test [7]. In addition, the GI50 is 2.34 µM in test [8], 1.42 µM in [9] and 21.2 µM in test [10]. Moreover, the TGI in [1] was above 46.2 µM; in test [2], above 38.3 µM; in test [3] it was above 60.5 µM; in [4], 3.5 µM; in [5], 7.9 µM; in [6], above 41.3 µM. Further, the concentration for total growth inhibition (TGI) is 1.91 µM in test [7], 5.5 µM in [8], 3.52 µM in test [9] and above 52.1 µM in test [10].

`COc1ccccc1C(=O)/C=C/c1cc2cccc(OC)c2[nH]c1=O`: the GI50 in test [1] is 0.0401 µM; in [2] it was 0.0158 µM; in test [3], 0.0481 µM; in test [4], below 0.0225 µM; in test [5], below 0.0167 µM; in test [6], 0.314 µM. Besides, the GI50 in [7] was below 0.0181 µM; in test [8], 0.0584 µM; in [9], 1.08 µM; in test [10], 0.0332 µM. Also, the TGI in test [1] came to 1.38 µM; in [2], 0.0788 µM; in test [3], 1.43 µM; in test [4], 0.632 µM; in test [5], 1.13 µM; in test [6] it was 8.37 µM. Also, the TGI in [7] was determined as 1.42 µM; in test [8] it was 0.991 µM; in test [9], 6.63 µM; in test [10], 1.47 µM.

In the case of `O=C1c2ccccc2-c2c1c1ccccc1c(=O)n2CCO`, the TGI in [1] is above 100 µM; in test [2], above 100 µM; in test [3], above 100 µM; in test [4], above 79.3 µM; in [5] it was above 100 µM; in test [6] it was above 100 µM. Further, the TGI in test [7], in test [8], in test [9] and in test [10] was above 100 µM throughout.

In the case of `C1=CN2C[n+]3cccc(OCc4ccccc4)c3N=C2C(OCc2ccccc2)=C1`, the TGI is above 100 µM in test [1]; above 100 µM in test [2]; 18 µM in test [3]; above 100 µM in test [4]; 82.9 µM in test [6]; 9.26 µM in test [7]. Also, the values for the TGI in [8], in [9] and in test [10] were above 100 µM, 36 µM and 27.2 µM, respectively.

For `ClC(=Nc1cccc2ccccc12)N(c1ccccc1)c1ccccc1`, the TGI is above 100 µM in test [1]; above 100 µM in test [2]; above 100 µM in [4]; above 100 µM in test [5]; above 100 µM in [6]; 89.3 µM in test [7]. Also, the TGI in [8], in [9] and in [10] was above 100 µM throughout.

Consider `CCOC(=O)c1cccc(=O)c(C(=O)OCC)c1`, for which the TGI in [1], in [2], in [4], in test [5], in [6] and in [7] was above 100 µM each time. Further, the TGI in [8] and in test [9] was above 100 µM each time.

Regarding `Cc1ccc(-c2c(C#N)c(N)nc(N3CCOCC3)c2C#N)o1`, the GI50 in test [1] was 19.1 µM; in [2], 15.5 µM; in test [4], 33.5 µM; in [5], 46.6 µM; in [6], 55.5 µM; in [7], 49.8 µM. The results for the GI50 in test [8] and in test [9] were 40.7 µM and 71.3 µM, respectively. Besides, the TGI in test [1] was 57.9 µM; in test [2], 54.4 µM; in [4], above 100 µM; in [5], above 100 µM; in [6], above 100 µM; in [7], above 100 µM. For the same compound, the TGI in test [8] and in test [9] was above 100 µM throughout.

`N#Cc1ccccc1NC(=O)C(=O)C(C(=O)c1ccccc1-c1ccccc1)C1OC(=O)c2ccccc21` (stereo unspecified): the TGI in [1] came to 33.5 µM; in test [2], 45.2 µM; in [3] it was 43.2 µM; in test [4] it was 23 µM; in test [5], 41.3 µM; in [7], 79.7 µM. Also, the TGI in test [8] was determined as 25.3 µM; in test [9], 40.4 µM.

In the case of `Cc1ccc(S(=O)(=O)N/N=C/C(Br)=C(/Br)C(=O)O)cc1`, the TGI is 14.8 µM in test [1]; 32.3 µM in test [2]; 13.3 µM in [3]; 33.1 µM in test [5]; 19.7 µM in [6]; 6.18 µM in [7]. Moreover, the figures for the TGI in test [8], in test [9] and in [10] were 5.17 µM, 9.65 µM and 28.8 µM, respectively.

For the compound `COc1c(OC(C)=O)ccc(/C=C2\N=C(C)OC2=O)c1[N+](=O)[O-]`, the TGI in [1], in test [2], in test [3], in [4], in [5] and in [6] was above 100 µM each time. Further, the TGI in [7], in test [8] and in test [10] was above 100 µM in each case.
